Source: patent US20040022676A1, “Apparatus and method for controlled delivery of a gas” (Selective Micro Technologies, LLC, priority 2000, published 2004)

Assays:
[1] = test system: biofilm; experiment: Removal of biofilm from contaminated dental equipment with chlorine dioxide solution
Source text: Apparatus 1310 can also be incorporated into a pouch like that depicted in FIG. 15 to generate a desired concentration of gas, e.g., chlorine dioxide, in water. This embodiment is particularly useful in wet applications, e.g., for use in removing biofilm from dental equipment. One such apparatus was constructed and used to generate an aqueous solution containing 50 parts per million chlorine dioxide. It was then emptied into a dental equipment reservoir and allowed to run through the equipment, which was contaminated with biolfilm, and stand overnight. In the morning, the dental equipment was flushed with water. This procedure was repeated the following two nights. The equipment was then tested for the presence of biofilm and the biofilm was diminished. Thereafter, rinsing the equipment once daily with a 5 parts per million solution was adequate to retard the growth of biofilm in the equipment.

[2] = test system: microbes; details: as low as; cited from earlier work

For [O][Cl+][O-] [chlorine dioxide], the “presence of biofilm in dental equipment after treatment” value ([1]; 50 parts per million solution, run through and left overnight, three nights) is listed as “diminished”, the “concentration of solution adequate to retard the growth of biofilm” value ([1]; rinsing the equipment once daily, after initial treatment) is listed as 5 parts per million and the “concentration at which effective as disinfectant” value [2] is listed as 0.2 mg/L.
